Experimental data from patent US8476455B2, “1-N-phenyl-amino-1h-imidazole derivatives and pharmaceutical compositions containing them” (Laboratoire Theramex, priority 2003, dated 2013).
Entries after “also recorded” stand apart in the source; their conditions may differ.

Assays:
[1] = biological target: T1, human aromatase (Homo sapiens, UniProt P11511); assay: Dual aromatase and steroid sulfatase activities in JEG-3 cells: aromatase readout; type: cell-based; conditions: footnote c: dual aromatase and sulfatase activity, nd: not detected, read-out: Aromatase activity IC50 (nM) ± S.E.M.
T1 construct: The JEG-3 cell line, derived from a human placental choriocarcinoma, constitutively overexpresses human aromatase; endogenous in cells; host or cells: JEG-3 (human placental choriocarcinoma)
T1 sequence (P11511 1-503): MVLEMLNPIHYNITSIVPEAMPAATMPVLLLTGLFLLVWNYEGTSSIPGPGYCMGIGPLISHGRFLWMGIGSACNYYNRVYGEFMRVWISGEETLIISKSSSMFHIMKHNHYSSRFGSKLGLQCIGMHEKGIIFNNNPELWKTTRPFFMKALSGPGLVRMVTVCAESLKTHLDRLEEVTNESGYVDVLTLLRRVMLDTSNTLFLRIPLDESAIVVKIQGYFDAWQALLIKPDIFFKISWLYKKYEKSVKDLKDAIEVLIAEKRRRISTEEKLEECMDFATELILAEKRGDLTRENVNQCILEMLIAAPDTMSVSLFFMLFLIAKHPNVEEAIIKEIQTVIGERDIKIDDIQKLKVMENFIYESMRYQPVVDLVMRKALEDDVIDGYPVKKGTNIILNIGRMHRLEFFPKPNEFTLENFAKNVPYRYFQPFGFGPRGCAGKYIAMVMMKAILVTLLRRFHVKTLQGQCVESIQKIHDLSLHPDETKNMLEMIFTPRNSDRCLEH
Description: Assays were carried out with cells in logarithmic growth phase on 96-well microplates. 24 h before studies, cells were seeded in decomplemented fetal calf serum (dFCS) supplemented medium. The medium was removed 24 h later and cells were rinsed with PBS to eliminate any trace of dFCS. Then, ^3H-E1S was added in dFCS free medium, followed by test compounds at concentrations ranging from 10^−12 M to 10^−5 M. After 4 h of treatment, the medium was transferred into 96-deep-well microplates and centrifuged at 200×g for 10 min to pellet cells before toluene extraction. A fraction of the medium was used for toluene extraction in order to separate the conjugated substrate from non-conjugated products. The radioactivity in the toluene phase was measured by liquid scintillation counting. […] Finally, estrone sulfatase activity was expressed in pmoles of ^3H-E1+^3H-E2 formed/4 hours/mg DNA and estrone sulfatase inhibition as a percentage of control activity without inhibitor.
In order to evaluate the inhibitory potency of DASI compounds in parallel on both human aromatase and steroid sulfatase activities, a new in vitro model was set up using JEG-3 cells. The experimental conditions of the steroid sulfatase model previously described was adopted with slight modifications: the presence of the two substrates ^3-HE1S and 1β-^3H-androstenedione into the medium and an incubation period of 2 hours. Results were expressed in pmoles of product formed (^3H-E1+^3H-E2 or ^3H2O)/2 hours/mg DNA (Table 1).

[2] = system: Ishikawa cells; assay: Alkaline phosphatase activity in Ishikawa cells (estrogenic potency); type: cell-based; conditions: hydrochloride
Description: Ishikawa cells were plated into 96-well microplates 48 hours before studies. The next day, the medium was replaced by phenol red free medium supplemented with 5% charcoal-stripped dFCS. 24 hours later, the medium was renewed and compounds were added to the plated cells and incubated for an additional four-day period. […] At the end of the incubation period, alkaline phosphatase activity (APase) was assayed by a method involving the hydrolysis of p-nitrophenyl phosphate to p-nitrophenol and spectrophotometric determination of the product at 405 nm.
In brief, the microplates were first rinsed twice with cold phosphate buffered solution and then placed at −80° C. for at least 15 minutes. After thawing at room temperature, 50 μl ice-cold solution containing 5 mM p-nitrophenyl phosphate was added to each well. After a 15 to 60 minute incubation period at room temperature, the intensity of the yellow color generated by the production of p-nitrophenol was measured into each well at 405 nm.
For each tested concentration, APase activity, reflected by absorbance, was first expressed as fold increase over control (FI) and then as percentage of E2 activity (10^-8 M) chosen equal to 100%.

- IC50 [1]: < 1 nM
Compound: Cl.N#Cc1ccc(N(Cc2ccc(OS(N)(=O)=O)c(Br)c2)n2ccnc2)cc1 [Ex 45, Sulfamic acid 2-bromo-4-{[N-(4-cyanophenyl)-N-(1H-imidazol-1yl)amino]methyl}phenyl ester, hydrochloride]
- estrogenicity in vitro (in words) [2]: not estrogenic; also recorded: lack of estrogenicity
